For 10 compounds, Activity and EC50 results are on record in ChEMBL document CHEMBL1158840, “Cytotoxic prenylflavonoids from Artocarpus elasticus” (2005).

Converted amounts (≈) assume the structure as drawn. The source made the active and inactive calls. No cut-off for these calls is given here.

One assay relates to MCF7. As to the kind of experiment: Cytotoxicity against human MCF7 cells by MTT assay. In kind it is functional. Conditions: for EC50: read-out: ED50 (the source's name). A general note: Tetrazolium assays rely on reduction of a dye to a coloured formazan, in cell work by metabolically active cells.
For the next assay, the system named is HT-29. As to the kind of experiment: Cytotoxicity against human HT-29 cells by MTT assay. In kind it is functional. The note with it: for EC50: read-out: ED50 (the source's name).
The next assay concerns Hep 3B2. Put plainly: (§1) Cytotoxicity against human Hep3B cells by MTT assay. In kind it is functional.
The subject of the next assay is A549. Put plainly: Cytotoxicity against human A549 cells by MTT assay. In kind it is functional. Conditions: for EC50: read-out: ED50 (the source's name).
A short description of assay [1]: as §1. The note with it: read-out: ED50 (the source's name). In kind it is functional, Hep 3B2.

For `CC(=O)C1c2oc3c4c(cc(O)c3c(=O)c2CC2C1C(=O)OC2(C)C)OC(C)(C)C=C4` (stereo not given), the result in the assay on MCF7, in the assay on HT-29, with Hep 3B2 and with A549 was inactive.

With `CC(C)=CCC/C(C)=C/Cc1c2c(c3oc4c(c(=O)c3c1O)CC1c3c(c(O)cc(O)c3-4)OC1(C)C)C=CC(C)(C)O2` (stereo not given), the outcome with MCF7, in the assay with HT-29, in the assay on Hep 3B2 and in the assay on A549 was inactive.

Take `C=C(C)C1Cc2c(oc3cc(O)cc(O)c3c2=O)-c2c(O)c3c(c(O)c21)OC(C)(C)C=C3` (stereo not given) [ARTELASTOXANTHONE]: the EC50 with MCF7 was 3.1 µg/mL (≈ 7.14 µM); in the assay on HT-29, 3.9 µg/mL (≈ 8.98 µM); in assay [1], 3.2 µg/mL (≈ 7.37 µM); with A549 it was 10 µg/mL (≈ 23 µM).

As for `CC(C)=CCc1c2c(c(O)c3c(=O)c(C(O)C=C(C)C)c(-c4cc(O)c(O)cc4O)oc13)C=CC(C)(C)O2` (stereo not given), the result with MCF7, with HT-29, in the assay on Hep 3B2 and in the assay on A549 was inactive.

As for `C=C(C)C1Cc2c(oc3c(CC=C(C)C)c4c(c(O)c3c2=O)C=CC(C)(C)O4)-c2c(O)cc(O)c(O)c21` (stereo not given), the outcome in the assay on MCF7, with HT-29, in the assay on Hep 3B2 and with A549 was inactive.

As to `COc1cc(O)c2c3c1-c1oc4c(/C=C(\O)C(C)(C)O)c(O)cc(O)c4c(=O)c1C[C@@H]3C(C)(C)O2`, the outcome in the assay with MCF7, with HT-29, in the assay on Hep 3B2 and in the assay on A549 was inactive.

As for `O=c1[nH]cc(F)c(=O)[nH]1` [FLUOROURACIL], the EC50 with MCF7 is 0.2 µg/mL (≈ 1.54 µM); with HT-29 it was 0.2 µg/mL (≈ 1.54 µM); in assay [1], 0.6 µg/mL (≈ 4.61 µM); in the assay on A549, 0.4 µg/mL (≈ 3.08 µM).

In the case of `C=C(C)C1CC(=O)c2oc3c4c(cc(O)c3c(=O)c2C1)OC(C)(C)C=C4` (stereo not given) [ARTONOL A], the EC50 in the assay with MCF7 is 2.7 µg/mL (≈ 7.66 µM); in the assay on HT-29, 3.1 µg/mL (≈ 8.8 µM); in assay [1], 21.9 µg/mL (≈ 62.1 µM); with A549 it was 1.1 µg/mL (≈ 3.12 µM).

Take `CC1(C)C=Cc2c(cc(O)c3c(=O)c4c(oc23)-c2c(O)cc(O)c3c2C(C4)C(C)(C)O3)O1` (stereo not given): the outcome with MCF7, in the assay with HT-29, with Hep 3B2 and with A549 was inactive.

In the case of `COc1cc(O)c(-c2oc3c(CC=C(C)C)c(O)cc(O)c3c(=O)c2C(O)C=C(C)C)cc1O` (stereo not given), the outcome in the assay with MCF7, in the assay on HT-29, in the assay on Hep 3B2 and in the assay on A549 was inactive.
